Test results: the NIST ThermoML archive (doi:10.1021/acs.jced.8b00201)

Assay: xn = mol fraction of the nth substance listed
Details: 100 kPa, Liquid; for viscosity: Concentric cylinders viscometry; for mass density: Vibrating tube method

O=C1CCCCC1 [cyclohexanone] + CCCCCO
Details	mass density [kg/m3]	viscosity [mPa·s]
293.15 K, x1 = 0.0803	825.1	3.57
293.15 K, x1 = 0.1609	835.7	3.16
293.15 K, x1 = 0.2403	846.2	2.8
293.15 K, x1 = 0.3473	860.4	2.41
293.15 K, x1 = 0.4404	872.7	2.17
293.15 K, x1 = 0.5619	889	1.96
293.15 K, x1 = 0.6501	900.9	1.88
293.15 K, x1 = 0.747	914	1.87
293.15 K, x1 = 0.8494	928	1.98
293.15 K, x1 = 0.9404	940.5	2.12
293.15 K, x1 = 1	948.8	2.3
298.15 K, x1 = 0.0803	821.1	3.1
298.15 K, x1 = 0.1609	831.6	2.77
298.15 K, x1 = 0.2403	841.9	2.49
298.15 K, x1 = 0.3473	855.8	2.15
298.15 K, x1 = 0.4404	868	1.96
298.15 K, x1 = 0.5619	884.1	1.8
298.15 K, x1 = 0.6501	895.8	1.74
298.15 K, x1 = 0.747	908.8	1.74
298.15 K, x1 = 0.8494	922.6	1.83
298.15 K, x1 = 0.9404	934.9	1.97
298.15 K, x1 = 1	943.1	2.09
303.15 K, x1 = 0.0803	817.3	2.71
303.15 K, x1 = 0.1609	827.6	2.44
303.15 K, x1 = 0.2403	837.8	2.2
303.15 K, x1 = 0.3473	851.6	1.94
303.15 K, x1 = 0.4404	863.7	1.77
303.15 K, x1 = 0.5619	879.6	1.63
303.15 K, x1 = 0.6501	891.2	1.58
303.15 K, x1 = 0.747	904.1	1.58
303.15 K, x1 = 0.8494	917.8	1.67
303.15 K, x1 = 0.9404	930.1	1.78
303.15 K, x1 = 1	938.2	1.91
308.15 K, x1 = 0.0803	813.4	2.38
308.15 K, x1 = 0.1609	823.6	2.14
308.15 K, x1 = 0.2403	833.7	1.95
308.15 K, x1 = 0.3473	847.4	1.73
308.15 K, x1 = 0.4404	859.5	1.6
308.15 K, x1 = 0.5619	875.3	1.49
308.15 K, x1 = 0.6501	886.8	1.46
308.15 K, x1 = 0.747	899.6	1.46
308.15 K, x1 = 0.8494	913.2	1.54
308.15 K, x1 = 0.9404	925.5	1.64
308.15 K, x1 = 1	933.5	1.75
313.15 K, x1 = 0.0803	809.6	2.08
313.15 K, x1 = 0.1609	819.7	1.9
313.15 K, x1 = 0.2403	829.8	1.73
313.15 K, x1 = 0.3473	843.4	1.54
313.15 K, x1 = 0.4404	855.3	1.43
313.15 K, x1 = 0.5619	871	1.34
313.15 K, x1 = 0.6501	882.4	1.32
313.15 K, x1 = 0.747	895.1	1.33
313.15 K, x1 = 0.8494	908.7	1.4
313.15 K, x1 = 0.9404	920.8	1.5
313.15 K, x1 = 1	928.8	1.6
318.15 K, x1 = 0.0803	805.7	1.84
318.15 K, x1 = 0.1609	815.7	1.68
318.15 K, x1 = 0.2403	825.6	1.53
318.15 K, x1 = 0.3473	839.1	1.38
318.15 K, x1 = 0.4404	851	1.29
318.15 K, x1 = 0.5619	866.6	1.21
318.15 K, x1 = 0.6501	878.1	1.19
318.15 K, x1 = 0.747	890.7	1.21
318.15 K, x1 = 0.8494	904.3	1.28
318.15 K, x1 = 0.9404	916.4	1.37
318.15 K, x1 = 1	924.4	1.46
323.15 K, x1 = 0.0803	801.9	1.65
323.15 K, x1 = 0.1609	811.9	1.52
323.15 K, x1 = 0.2403	821.8	1.4
323.15 K, x1 = 0.3473	835.3	1.27
323.15 K, x1 = 0.4404	847.1	1.19
323.15 K, x1 = 0.5619	862.8	1.21
323.15 K, x1 = 0.6501	874.2	1.107
323.15 K, x1 = 0.747	886.9	1.13
323.15 K, x1 = 0.8494	900.5	1.19
323.15 K, x1 = 0.9404	912.7	1.27
323.15 K, x1 = 1	920.7	1.34
